Like-named read-outs stand apart in the source and are kept apart here. Some results are limits rather than exact numbers.

The source of these data is patent publication US8906884B2, “Method of treating graft-rejection using dextran sulfate” (TX Medic AB, priority 2002, dated 2014).

Experiment [1] deals with clot formation induced by API in human blood. As for the experimental part: Blood was drawn from four healthy volunteers into Vacutainer™ tubes containing citrate. Whole blood (980 μl) was incubated with 2 μl of API at 37° C. in polypropylene sample cups in a ReoRox™ rheometer (Global Haemostasis International, Gothenburg, Sweden). […] Every 6 s, the cup was set into free torsional oscillation around its vertical axis, and the damping and frequency of the oscillation was registered. Clotting time was identified as the point of maximal damping.

The next experiment concerns complement system. Particulars: FIG. 3, in words. As for the experimental part: At 5, 10, 15, 30, 45, and 60 min after serum incubation at 37° C., 100 μl of serum was transferred to tubes containing 10 mM EDTA. These samples were stored at −70° C. before analysis of the complement components C3a and sC5b-9.
Filled bars represent generation of C3a and unfilled correspond to sC5b-9.

For “Low molecular weight dextran sulfate [LMW-DS]”, the “Clot formation / clotting time versus no additives” value in experiment [1] (0.01 and 0.1 mg/ml, in words) is given as “totally abrogated”. Moreover, the Clotting time in experiment [1] (experiment 1, 0.01 mg/ml) is recorded as greater than 60 min; in experiment [1] (experiment 1, 0.1 mg/ml), greater than 60 min; in experiment [1] (experiment 2, 0.01 mg/ml) it was greater than 60 min; in experiment [1] (experiment 2, 0.1 mg/ml), greater than 60 min; in experiment [1] (experiment 3, 0.01 mg/ml), greater than 60 min; in experiment [1] (experiment 3, 0.1 mg/ml), greater than 60 min. The Clotting time in experiment [1] (experiment 4, 0.01 mg/ml) is recorded as greater than 60 min; in experiment [1] (experiment 4, 0.1 mg/ml), greater than 60 min. The “Generation of C3a and sC5b-9 in human serum” value with complement system (0.01 mg/ml) is “increased generation”; in the experiment with complement system (1 mg/ml), “inhibitory effect”.
